11 molecules from ChEMBL document CHEMBL1131886 (Bioorg Med Chem Lett, 1999) can be followed below.

Experiment [1] deals with T1, 5-hydroxytryptamine receptor 1A (Homo sapiens, UniProt P08908).
T1 sequence (P08908 whole entry): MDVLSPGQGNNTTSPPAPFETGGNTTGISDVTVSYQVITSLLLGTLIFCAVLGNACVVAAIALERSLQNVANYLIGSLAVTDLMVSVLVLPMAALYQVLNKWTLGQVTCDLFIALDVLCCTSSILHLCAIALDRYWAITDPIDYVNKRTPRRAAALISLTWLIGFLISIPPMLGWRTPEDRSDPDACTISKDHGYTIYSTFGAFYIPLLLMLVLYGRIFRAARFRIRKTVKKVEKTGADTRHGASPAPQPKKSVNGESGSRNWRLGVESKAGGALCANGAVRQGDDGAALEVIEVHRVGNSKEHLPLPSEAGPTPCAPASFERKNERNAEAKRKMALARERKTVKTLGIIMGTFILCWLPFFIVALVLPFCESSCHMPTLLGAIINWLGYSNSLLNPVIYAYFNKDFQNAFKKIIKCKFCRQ
Description: Stimulation of [35S]- GIPyS binding to cloned human 5-hydroxytryptamine 1A receptor stably expressed in HeLa cells. It is filed as cell-based.

The target in experiment [2] is T1, 5-hydroxytryptamine receptor 1A. In words: Displacement of specific [3H]- 5-HT binding to cloned human 5-hydroxytryptamine 1A receptor stably expressed in HeLa cells. Format: cell-based.
The target of experiment [3] is Sodium-dependent serotonin transporter (Rattus norvegicus, UniProt P31652). Description: Displacement of specific [3H]- citalopram binding to 5-HT uptake site in rat whole cortex.
Experiment [4] addresses T2, 5-hydroxytryptamine receptor 1A (Homo sapiens) (UniProt P08908).
T2 sequence (whole entry): T1 sequence (P08908 whole entry)
In words: Percent efficacy against human 5-hydroxytryptamine 1A receptor relative to maximal 5-HT response. It is filed as functional.

Experiment [5] deals with T1, 5-hydroxytryptamine receptor 1A. Description: Stimulation of [35S]- […] binding to cloned human 5-hydroxytryptamine 1A receptor stably expressed in HeLa cells; Inverse. It is filed as cell-based.
Experiment [6] has as its target T2, 5-hydroxytryptamine receptor 1A (Homo sapiens). Description: Percent efficacy against cloned human 5-hydroxytryptamine 1A receptor normalized to the maximal 5-HT response. It is filed as functional.

Chain of Sodium-dependent serotonin transporter (P31652 whole entry): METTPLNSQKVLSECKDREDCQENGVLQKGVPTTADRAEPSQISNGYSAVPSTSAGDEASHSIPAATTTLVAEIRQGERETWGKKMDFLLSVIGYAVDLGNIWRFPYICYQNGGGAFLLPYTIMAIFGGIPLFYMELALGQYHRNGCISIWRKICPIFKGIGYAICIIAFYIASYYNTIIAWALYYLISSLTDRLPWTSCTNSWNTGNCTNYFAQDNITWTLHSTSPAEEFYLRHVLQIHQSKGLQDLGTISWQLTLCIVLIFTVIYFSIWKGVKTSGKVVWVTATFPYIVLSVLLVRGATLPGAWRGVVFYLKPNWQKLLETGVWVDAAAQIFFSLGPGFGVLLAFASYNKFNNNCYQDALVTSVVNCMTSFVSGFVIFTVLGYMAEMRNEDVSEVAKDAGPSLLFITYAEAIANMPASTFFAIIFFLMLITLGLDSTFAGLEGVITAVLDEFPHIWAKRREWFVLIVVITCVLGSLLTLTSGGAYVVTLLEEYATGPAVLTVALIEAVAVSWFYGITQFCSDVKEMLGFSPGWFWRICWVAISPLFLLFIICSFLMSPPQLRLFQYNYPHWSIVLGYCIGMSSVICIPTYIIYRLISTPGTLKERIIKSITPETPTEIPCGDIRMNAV

As for `O[C@H](COc1ccccc1)CN1CCC2(CC1)OCc1c2ccc2ccccc12`, the midpoint of the response in experiment [1], the EC50, lay at 1.2 nM. Further, the Ki in experiment [2] was 1.1 nM; in experiment [3], 50 nM. In addition, the Efficacy in experiment [4] is 81%.
Taken in the same sequence, the figures for `OC(COCc1ccccc1)CN1CCC2(CC1)OCc1c2ccc2ccccc12` (stereo not drawn) were 31 nM, 2.2 nM, 83 nM and 108%.
Taken in the same sequence, the figures for `CCc1cccc(OC[C@@H](O)CN2CCC3(CC2)OCc2c3ccc3ccccc23)c1` were 3.3 nM, 1.7 nM, 87 nM and 61%.
For `OC(COc1ccc(F)c2c1OCCC2)CN1CCC2(CC1)OCc1c2ccc2ccccc12` (stereo not drawn), the EC50 in experiment [1] is > 10000 nM. Moreover, the Ki in experiment [2] stood at 2.8 nM; in experiment [3] it was 49 nM.
`CC(C)NCC(O)COc1cccc2[nH]ccc12` (stereo not drawn): the Efficacy in experiment [4] worked out at 36%.
`O[C@H](COc1ccccc1F)CN1CCC2(CC1)OCc1c2ccc2ccccc12` returned an EC50 in experiment [1] of 1.1 nM. Moreover, the Ki in experiment [2] is 1 nM; in experiment [3], 52 nM. Besides, the Efficacy in experiment [4] was 100%.
As for `c1ccc(CCCCN2CCC3(CC2)OCc2c3ccc3ccccc23)cc1`, the EC50 in experiment [1] is > 10000 nM. The figures for the Ki in experiment [2] and in experiment [3] were 72 nM and 28 nM, respectively.
The molecule `OC(CCc1ccccc1)CN1CCC2(CC1)OCc1c2ccc2ccccc12` (stereo not drawn) showed an EC50 in experiment [1] of 37 nM. Also, the Ki turned out to be 8.3 nM in experiment [2] and 10 nM in experiment [3]. In experiment [4], this molecule yielded an Efficacy of 87%.
For the molecule `OC(COc1cc(F)cc2c1OCCC2)CN1CCC2(CC1)OCc1c2ccc2ccccc12` (stereo not drawn), in experiment [5], the EC50 result is listed as “Inverse agonist”. Moreover, the results for the Ki in experiment [2] and in experiment [3] were 5.5 nM and 72 nM, respectively.
Take `O=C1CCc2c(F)ccc(OCC(O)CN3CCC4(CC3)OCc3c4ccc4ccccc34)c21` (stereo not drawn): the Efficacy in experiment [6] was found to be 65%. For the same molecule, in experiment [1], the response was half-maximal at 3.5 nM (EC50). In addition, the Ki is 2.3 nM in experiment [2] and 45 nM in experiment [3].
Consider `O[C@@H](COc1ccccc1F)CN1CCC2(CC1)OCc1c2ccc2ccccc12`, for which the EC50 in experiment [1] came out at 21 nM. The values for the Ki in experiment [2] and in experiment [3] were 6 nM and 120 nM, respectively. The molecule further returned an Efficacy in experiment [4] of 92%.
